Test results published in PubChem BioAssay AID1963849 (Molecular Pharmacology Branch, DTP, NCI, 2024).

Tested on: 299254-011-R-J1-PDC complex spheroid viability
Assay: Anticancer human tumor 299254-011-R-J1-PDC patient-derived melanoma cell line growth inhibition [POLQ]
Conditions: for IC50: curve of first compound; for viability, T/C: stronger effect = lower value; active means viability on the fitted dose curve at most 10% of control; inactive means the rest
Outline: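 Patient-derived tumour cells were co-cultured with HUVEC and mesenchymal stem cells as multicellular spheroids at 37 °C. They were treated with POLQ inhibitors (novobiocin, ART-558, RP6685) alone or combined with other agents. Top concentrations were at or near clinical Cmax (otherwise 10 microM; SN-38 at 1 microM), decreasing in half-log steps.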

[1] = second compound 0.0316 µM, first compound 0.0316 µM
[2] = second compound 0.0316 µM, first compound 0.1 µM
[3] = second compound 0.0316 µM, first compound 0.316 µM
[4] = second compound 0.0316 µM, first compound 1 µM
[5] = second compound 0.0316 µM, first compound 3.16 µM
[6] = second compound 0.0316 µM, first compound 10 µM
[7] = second compound 0.1 µM, first compound 0.0316 µM
[8] = second compound 0.1 µM, first compound 0.1 µM
[9] = second compound 0.1 µM, first compound 0.316 µM
[10] = second compound 0.1 µM, first compound 1 µM
[11] = second compound 0.1 µM, first compound 3.16 µM
[12] = second compound 0.1 µM, first compound 10 µM
[13] = second compound 0.316 µM, first compound 0.0316 µM
[14] = second compound 0.316 µM, first compound 0.1 µM
[15] = second compound 0.316 µM, first compound 0.316 µM
[16] = second compound 0.316 µM, first compound 1 µM
[17] = second compound 0.316 µM, first compound 3.16 µM
[18] = second compound 0.316 µM, first compound 10 µM
[19] = second compound 1 µM, first compound 0.0316 µM
[20] = second compound 1 µM, first compound 0.1 µM
[21] = second compound 1 µM, first compound 0.316 µM
[22] = second compound 1 µM, first compound 1 µM
[23] = second compound 1 µM, first compound 3.16 µM
[24] = second compound 1 µM, first compound 10 µM
[25] = second compound 3.16 µM, first compound 0.0316 µM
[26] = second compound 3.16 µM, first compound 0.1 µM
[27] = second compound 3.16 µM, first compound 0.316 µM
[28] = second compound 3.16 µM, first compound 1 µM
[29] = second compound 3.16 µM, first compound 3.16 µM
[30] = second compound 3.16 µM, first compound 10 µM
[31] = second compound 10 µM, first compound 0.0316 µM
[32] = second compound 10 µM, first compound 0.1 µM
[33] = second compound 10 µM, first compound 0.316 µM
[34] = second compound 10 µM, first compound 1 µM
[35] = second compound 10 µM, first compound 3.16 µM
[36] = second compound 10 µM, first compound 10 µM
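Further: spheroids exposed to drugs for one week before measurement.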
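Wherever viability, T/C is given: percent viability relative to DMSO vehicle control taken as 100%.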

COc1cccc2c1C(=O)c1c(O)c3c(c(O)c1C2=O)CC(O)(C(=O)CO)CC3OC1CC(N)C(O)C(C)O1 (stereo not drawn) + COC1C(OC(N)=O)C(O)C(Oc2ccc3c(O)c(NC(=O)c4ccc(O)c(CC=C(C)C)c4)c(=O)oc3c2C)OC1(C)C
527 nM: IC50 (second compound 0.316 µM)
active: viability, T/C [6] 3.09% | viability, T/C [12] 3% | viability, T/C [18] 0.51% | viability, T/C [24] 0.78% | viability, T/C [30] 0.92% | viability, T/C [35] 10.7% | viability, T/C [36] 1.25%
826 nM: IC50 (second compound 3.16 µM)
815 nM: IC50 (second compound 0.1 µM)
909 nM: IC50 (second compound 1 µM)
inactive: viability, T/C [1] 81.9% | viability, T/C [2] 96.5% | viability, T/C [3] 55.2% | viability, T/C [4] 40.7% | viability, T/C [5] 9.45% | viability, T/C [7] 86.8% | viability, T/C [8] 97.5% | viability, T/C [9] 75.7% | viability, T/C [10] 44.9% | viability, T/C [11] 11.2% | viability, T/C [13] 99.2% | viability, T/C [14] 96% | viability, T/C [15] 54.9% | viability, T/C [16] 37.8% | viability, T/C [17] 13.1% | viability, T/C [19] 93% | viability, T/C [20] 87.5% | viability, T/C [21] 76.7% | viability, T/C [22] 49.2% | viability, T/C [23] 11.9% | viability, T/C [25] 92.6% | viability, T/C [26] 95.5% | viability, T/C [27] 76.7% | viability, T/C [28] 45.6% | viability, T/C [29] 10.3% | viability, T/C [31] 105% | viability, T/C [32] 104% | viability, T/C [33] 65.2% | viability, T/C [34] 30%
564 nM: IC50 (second compound 0.0316 µM)
541 nM: IC50 (second compound 10 µM)

C=CC(=O)N1CCN(c2nc(=O)n(-c3c(C)ccnc3C(C)C)c3nc(-c4c(O)cccc4F)c(F)cc23)C(C)C1 (stereo not drawn) + Cc1cccc(N(C)C(=O)C2C(O)CCN2c2nc(C)cc(C(F)(F)F)c2C#N)c1
inactive: viability, T/C [1] 88.6% | viability, T/C [2] 75.1% | viability, T/C [3] 72.8% | viability, T/C [4] 67.8% | viability, T/C [5] 63.4% | viability, T/C [6] 68.9% | viability, T/C [7] 85.2% | viability, T/C [8] 78.1% | viability, T/C [9] 64% | viability, T/C [10] 79.3% | viability, T/C [11] 69.3% | viability, T/C [12] 58.7% | viability, T/C [13] 99.5% | viability, T/C [14] 81.8% | viability, T/C [15] 88.3% | viability, T/C [16] 77.2% | viability, T/C [17] 74.3% | viability, T/C [18] 64.4% | viability, T/C [19] 88.4% | viability, T/C [20] 73.8% | viability, T/C [21] 63.5% | viability, T/C [22] 64.5% | viability, T/C [23] 82.2% | viability, T/C [24] 67.9% | viability, T/C [25] 84% | viability, T/C [26] 84.8% | viability, T/C [27] 66.4% | viability, T/C [28] 70.1% | viability, T/C [29] 66.1% | viability, T/C [30] 72.8% | viability, T/C [31] 90.5% | viability, T/C [32] 72.7% | viability, T/C [33] 56.4% | viability, T/C [34] 74% | viability, T/C [35] 74.9% | viability, T/C [36] 75.2%
> 10000 nM: IC50 (second compound 0.0316 µM) | IC50 (second compound 0.1 µM) | IC50 (second compound 0.316 µM) | IC50 (second compound 1 µM) | IC50 (second compound 3.16 µM) | IC50 (second compound 10 µM)

COc1cc(C2c3cc4c(cc3C(OC3OC5COC(C)OC5C(O)C3O)C3COC(=O)C23)OCO4)cc(OC)c1O (stereo not drawn) + Nc1ccc(C#CCN(C(=O)Cc2ncc(C(F)(F)F)cc2C(F)(F)F)c2ccc(F)cc2)nn1
inactive: viability, T/C [1] 112% | viability, T/C [2] 105% | viability, T/C [3] 87.5% | viability, T/C [4] 92.2% | viability, T/C [5] 78.7% | viability, T/C [6] 63.5% | viability, T/C [7] 112% | viability, T/C [8] 94.4% | viability, T/C [9] 112% | viability, T/C [10] 84.5% | viability, T/C [11] 89.7% | viability, T/C [12] 69.7% | viability, T/C [13] 114% | viability, T/C [14] 100% | viability, T/C [15] 88.5% | viability, T/C [16] 106% | viability, T/C [17] 83.7% | viability, T/C [18] 74.8% | viability, T/C [19] 108% | viability, T/C [20] 99.2% | viability, T/C [21] 90.3% | viability, T/C [22] 99.6% | viability, T/C [23] 71.8% | viability, T/C [24] 82.3% | viability, T/C [25] 99.7% | viability, T/C [26] 102% | viability, T/C [27] 88.9% | viability, T/C [28] 80.7% | viability, T/C [29] 76.8% | viability, T/C [30] 69.3% | viability, T/C [31] 98.8% | viability, T/C [32] 100% | viability, T/C [33] 89.9% | viability, T/C [34] 75.5% | viability, T/C [35] 89.1% | viability, T/C [36] 71.7%
> 10000 nM: IC50 (second compound 0.0316 µM) | IC50 (second compound 0.1 µM) | IC50 (second compound 0.316 µM) | IC50 (second compound 1 µM) | IC50 (second compound 3.16 µM) | IC50 (second compound 10 µM)

CCc1c2c(nc3ccc(O)cc13)-c1cc3c(c(=O)n1C2)COC(=O)[C@]3(O)CC + Nc1ccc(C#CCN(C(=O)Cc2ncc(C(F)(F)F)cc2C(F)(F)F)c2ccc(F)cc2)nn1
> 1000 nM: IC50 (second compound 0.0316 µM) | IC50 (second compound 0.1 µM) | IC50 (second compound 0.316 µM) | IC50 (second compound 1 µM) | IC50 (second compound 3.16 µM) | IC50 (second compound 10 µM)
inactive: viability, T/C (second compound 0.0316 µM, first compound 0.00316 µM) 94.8% | viability, T/C (second compound 0.0316 µM, first compound 0.01 µM) 85.3% | viability, T/C [1] 81.9% | viability, T/C [2] 75.5% | viability, T/C [3] 76.8% | viability, T/C [4] 63.9% | viability, T/C (second compound 0.1 µM, first compound 0.00316 µM) 89.7% | viability, T/C (second compound 0.1 µM, first compound 0.01 µM) 85.5% | viability, T/C [7] 72.2% | viability, T/C [8] 77.2% | viability, T/C [9] 68.7% | viability, T/C [10] 57.9% | viability, T/C (second compound 0.316 µM, first compound 0.00316 µM) 108% | viability, T/C (second compound 0.316 µM, first compound 0.01 µM) 81.7% | viability, T/C [13] 69.5% | viability, T/C [14] 79% | viability, T/C [15] 71% | viability, T/C [16] 58.5% | viability, T/C (second compound 1 µM, first compound 0.00316 µM) 111% | viability, T/C (second compound 1 µM, first compound 0.01 µM) 85.3% | viability, T/C [19] 73.9% | viability, T/C [20] 79.5% | viability, T/C [21] 63.6% | viability, T/C [22] 55.6% | viability, T/C (second compound 3.16 µM, first compound 0.00316 µM) 97.6% | viability, T/C (second compound 3.16 µM, first compound 0.01 µM) 84.1% | viability, T/C [25] 81.9% | viability, T/C [26] 72.3% | viability, T/C [27] 72.9% | viability, T/C [28] 59.9% | viability, T/C (second compound 10 µM, first compound 0.00316 µM) 96.4% | viability, T/C (second compound 10 µM, first compound 0.01 µM) 73.2% | viability, T/C [31] 68.7% | viability, T/C [32] 71.1% | viability, T/C [33] 61.9% | viability, T/C [34] 61.5%
